Data: patent US10988445B2 (AstraZeneca AB, priority 2015, dated 2021)

System: human TH17 cells
Assay: Inhibition of IL-17 release from human TH17 cells
Assay type: cell-based
Conditions: Homo sapiens, 96 h, isolated human TH17 cells, 4 days culture, IL-17A by HTRF; read-out: pIC50 IL-17 release (converted)
In short: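 TH17 cells (CD4+CXCR3-CCR6+) enriched from healthy-donor PBMC isolated from heparinized whole blood. Supernatants collected on day 4; IL-17A quantified by HTRF.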

`O=C(Nc1ccc(C(O)(C(F)(F)F)C(F)(F)F)cc1)C1c2ccc(S(=O)(=O)CC3(O)CC3)cc2CN1C(=O)CO` (centres unmarked) [Example 1103, N-[4-(1,1,1,3,3,3-Hexafluoro-2-hydroxypropan-2-yl)phenyl]-2-(hydroxyacetyl)-5-{[(1-hydroxycyclopropyl)methyl]sulfonyl}-2,3-dihydro-1H-isoindole-1-carboxamide] gave an IC50 of 501 nM.

With `CCS(=O)(=O)c1ccc2c(c1)CN(C(=O)C1CCCO1)C2C(=O)Nc1ccc(C(O)(C(F)(F)F)C(F)(F)F)cc1` (centres unmarked) [Example 114, 5-(Ethylsulfonyl)-N-[4-(1,1,1,3,3,3-hexafluoro-2-hydroxypropan-2-yl)phenyl]-2-(tetrahydrofuran-2-ylcarbonyl)-2,3-dihydro-1H-isoindole-1-carboxamide] the IC50 was 31.6 nM.

Work on `CC(C)(O)CC(=O)N1Cc2cc(S(=O)(=O)CC3CC3)ccc2C1C(=O)Nc1ccc(C(O)(C(F)(F)F)C(F)(F)F)cc1` (centres unmarked) [Example 207, 5-[(Cyclopropylmethyl)sulfonyl]-N-[4-(1,1,1,3,3,3-hexafluoro-2-hydroxypropan-2-yl)phenyl]-2-(3-hydroxy-3-methylbutanoyl)-2,3-dihydro-1H-isoindole-1-carboxamide] yielded an IC50 of 39.8 nM.

Work on `O=C(Nc1ccc(C(O)(C(F)(F)F)C(F)(F)F)cc1)C1c2ccc(S(=O)(=O)CC3CC3)cc2CN1C(=O)C1CCCO1` (centres unmarked) [Example 208, 5-[(Cyclopropylmethyl)sulfonyl]-N-[4-(1,1,1,3,3,3-hexafluoro-2-hydroxypropan-2-yl)phenyl]-2-(tetrahydrofuran-2-ylcarbonyl)-2,3-dihydro-1H-isoindole-1-carboxamide] yielded an IC50 of 20 nM.

Work on `O=C(Nc1ccc(C(O)(C(F)(F)F)C(F)(F)F)cc1)C1NCc2cc(S(=O)(=O)CC3(F)CC3)ccc21` (centres unmarked) [Example 1300, 5-{[(1-Fluorocyclopropyl)methyl]sulfonyl}-N-[4-(1,1,1,3,3,3-hexafluoro-2-hydroxypropan-2-yl)phenyl]-2,3-dihydro-1H-isoindole-1-carboxamide] yielded an IC50 of 251 nM.

In the case of `COCCS(=O)(=O)c1ccc2c(c1)CN(C(=O)OC)C2C(=O)Nc1ccc(C(O)(C(F)(F)F)C(F)(F)F)cc1` (centres unmarked) [Example 704, Methyl 1-{[4-(1,1,1,3,3,3-hexafluoro-2-hydroxypropan-2-yl)phenyl]carbamoyl}-5-[(2-methoxyethyl)sulfonyl]-1,3-dihydro-2H-isoindole-2-carboxylate], the IC50 was 25.1 nM.

`O=C(Nc1ccc(C(O)(C(F)(F)F)C(F)(F)F)cc1)C1c2ccc(S(=O)(=O)CC3CC3)cc2CN1C(=O)C(F)(F)C1CC1` (centres unmarked) [Example 214, 2-[Cyclopropyl(difluoro)acetyl]-5-[(cyclopropylmethyl)sulfonyl]-N-[4-(1,1,1,3,3,3-hexafluoro-2-hydroxypropan-2-yl)phenyl]-2,3-dihydro-1H-isoindole-1-carboxamide] showed an IC50 of 10 nM.

With `CCS(=O)(=O)c1ccc2c(c1)CN(C(=O)C(F)(F)C1CC1)C2C(=O)Nc1ccc(C(O)(C(F)(F)F)C(F)(F)F)cc1` (centres unmarked) [Example 104, 2-[Cyclopropyl(difluoro)acetyl]-5-(ethylsulfonyl)-N-[4-(1,1,1,3,3,3-hexafluoro-2-hydroxypropan-2-yl)phenyl]-2,3-dihydro-1H-isoindole-1-carboxamide] the IC50 was 20 nM.

For `CC(C)[C@H](O)C(=O)N1Cc2cc(S(C)(=O)=O)ccc2C1C(=O)Nc1ccc(C(O)(C(F)(F)F)C(F)(F)F)cc1` (single isomer, unassigned) [Example 423], the IC50 was 79.4 nM.

With `COCCS(=O)(=O)c1ccc2c(c1)CN(C=O)C2C(=O)Nc1ccc(C(O)(C(F)(F)F)C(F)(F)F)cc1` (centres unmarked) [Example 701, 2-Formyl-N-[4-(1,1,1,3,3,3-hexafluoro-2-hydroxypropan-2-yl)phenyl]-5-[(2-methoxyethyl)sulfonyl]-2,3-dihydro-1H-isoindole-1-carboxamide] the IC50 was 15.8 nM.

Compound `CNC(=O)N1Cc2cc(S(=O)(=O)C3CC3)ccc2C1C(=O)Nc1ccc(C(O)(C(F)(F)F)C(F)(F)F)cc1` (centres unmarked) [Example 610] has an IC50 of 63.1 nM.

With `CCS(=O)(=O)c1ccc2c(c1)CN(C(=O)C1CCOC1)C2C(=O)Nc1ccc(C(O)(C(F)(F)F)C(F)(F)F)cc1` (centres unmarked) [Example 113, 5-(Ethylsulfonyl)-N-[4-(1,1,1,3,3,3-hexafluoro-2-hydroxypropan-2-yl)phenyl]-2-(tetrahydrofuran-3-ylcarbonyl)-2,3-dihydro-1H-isoindole-1-carboxamide] the IC50 was 79.4 nM.

In the case of `COC(=O)N1Cc2cc(S(=O)(=O)C3CC3)ccc2C1C(=O)Nc1ccc(C(O)(C(F)(F)F)C(F)(F)F)cc1` (centres unmarked) [Example 602, Methyl 5-(cyclopropylsulfonyl)-1-{[4-(1,1,1,3,3,3-hexafluoro-2-hydroxypropan-2-yl)phenyl]carbamoyl}-1,3-dihydro-2H-isoindole-2-carboxylate], the IC50 was 25.1 nM.

In the case of `NC(C(=O)N1Cc2cc(S(=O)(=O)CC3CC3)ccc2C1C(=O)Nc1ccc(C(O)(C(F)(F)F)C(F)(F)F)cc1)C1CC1` (centres unmarked) [Example 211, 2-[Amino(cyclopropyl)acetyl]-5-[(cyclopropylmethyl)sulfonyl]-N-[4-(1,1,1,3,3,3-hexafluoro-2-hydroxypropan-2-yl)phenyl]-2,3-dihydro-1H-isoindole-1-carboxamide], the IC50 was 200 nM.

Work on `CC(=O)N1Cc2cc(S(C)(=O)=O)ccc2C1C(=O)Nc1ccc(C(O)(C(F)(F)F)C(F)(F)F)c(F)c1` (centres unmarked) [Example 435, 2-Acetyl-N-[3-fluoro-4-(1,1,1,3,3,3-hexafluoro-2-hydroxypropan-2-yl)phenyl]-5-(methylsulfonyl)-2,3-dihydro-1H-isoindole-1-carboxamide] yielded an IC50 of 20 nM.

`CCS(=O)(=O)c1ccc2c(c1)CN(C(=O)CC1(O)CC1)C2C(=O)Nc1ccc(C(O)(C(F)(F)F)C(F)(F)F)cc1` (centres unmarked) [Example 107, 5-(Ethylsulfonyl)-N-[4-(1,1,1,3,3,3-hexafluoro-2-hydroxypropan-2-yl)phenyl]-2-[(1-hydroxycyclopropyl)acetyl]-2,3-dihydro-1H-isoindole-1-carboxamide] showed an IC50 of 50.1 nM.

With `COC1(C(=O)N2Cc3cc(S(=O)(=O)CC4CC4)ccc3C2C(=O)Nc2ccc(C(O)(C(F)(F)F)C(F)(F)F)cc2)CC1` (centres unmarked) [Example 212, 5-[(Cyclopropylmethyl)sulfonyl]-N-[4-(1,1,1,3,3,3-hexafluoro-2-hydroxypropan-2-yl)phenyl]-2-[(1-methoxycyclopropyl)carbonyl]-2,3-dihydro-1H-isoindole-1-carboxamide] the IC50 was 15.8 nM.

With `CNS(=O)(=O)c1ccc2c(c1)CN(C(=O)[C@@H]1CCCO1)C2C(=O)Nc1ccc(C(O)(C(F)(F)F)C(F)(F)F)cc1` (stereo partly drawn) [Example 311, N-[4-(1,1,1,3,3,3-Hexafluoro-2-hydroxypropan-2-yl)phenyl]-5-(methylsulfamoyl)-2-[(2S)-tetrahydrofuran-2-ylcarbonyl]-2,3-dihydro-1H-isoindole-1-carboxamide] the IC50 was 31.6 nM.

Work on `CS(=O)(=O)c1ccc2c(c1)CN(C(=O)CCF)C2C(=O)Nc1ccc(C(O)(C(F)(F)F)C(F)(F)F)cc1` (centres unmarked) [Example 415, 2-(3-Fluoropropanoyl)-N-[4-(1,1,1,3,3,3-hexafluoro-2-hydroxypropan-2-yl)phenyl]-5-(methylsulfonyl)-2,3-dihydro-1H-isoindole-1-carboxamide] yielded an IC50 of 31.6 nM.

In the case of `COC(=O)N1Cc2cc(S(=O)(=O)CC3CC3)ccc2C1C(=O)Nc1ccc(C(O)(C(F)(F)F)C(F)(F)F)cc1` (centres unmarked) [Example 213, Methyl 5-[(cyclopropylmethyl)sulfonyl]-1-{[4-(1,1,1,3,3,3-hexafluoro-2-hydroxypropan-2-yl)phenyl]carbamoyl}-1,3-dihydro-2H-isoindole-2-carboxylate], the IC50 was 7.94 nM.
